Data from patent US11655208B2, “1-carboxy-2-hydroxy-3-iminopropane and extraction method thereof” (Jiangnan University, priority 2020, dated 2023).

Legend:
Type in all cases: in vivo
male ICR mice [1] = assay: Open field test; conditions: for Movement speed / Movement time / Stay time in the middle area: mice, gavage for 14 days, within 10 minutes, x ± s
Protocol: (§1) 30 SPF-level 4-week-old male ICR (Institute of Cancer Research) mice were adaptively reared for 1 week and then randomly divided into 3 groups with 10 mice in each group. An experimental group and a blank group were given an aqueous solution of the 1-carboxy-2-hydroxy-3-iminopropane and water at a dose of 1.0 g/kg·bw by gavage respectively, and a positive control group was given an aqueous solution of estazolam at a dose of 2 mg/kg·bw by the gavage. After continuous gavage for 14 days, tests were carried out. The tests were carried out around 25° C. in a quiet environment.
An open field maze of 4 units (each unit 50 cm×50 cm×38 cm) consisting of 4 activity spaces were used in the test, and 4 mice were tested each time. The open field spaces were cleaned with alcohol before the test, and the test was started 30 minutes after a sample group was administered (15 minutes after a positive control group was administered). During the test, tails of the mice were gently grasped, and the mice were placed in the middle of each unit of the open field maze for adaption for 5 minutes. A software start button was clicked to activate software for tracking moving paths of the mice. With an average movement speed, a movement time and a stay time in the middle area within 10 minutes as indexes, data analysis was conducted by using EthoVision XT 11 software. After each test was completed, urine and feces were cleaned, and a bottom and an inner wall of the maze were sprayed with 5-10% ethanol and then wiped with paper to remove an odor left by the mice. Then, a next group of the mice was tested, and influence of the odor and residue on the next group of the mice was avoided.

male ICR mice [2] = assay: Direct sleep observation test; conditions: for 12 h sleep duration period: mice, sleep time within 12 hours after the gavage, x ± s
Protocol: as §1
After the open field test was completed, a direct sleep observation test was carried out the next night. 30 minutes after the gavage, a surveillance camera was used for observation, and a sleep time of the mice in each group within 12 hours after the gavage was recorded.

male ICR mice [3] = assay: Pentobarbital sodium induced sleep test; design: Sleep duration period: unit not given here
Protocol: as §1
Before the test, a preliminary test was carried out to determine a dose of pentobarbital sodium by intraperitoneal injection. After the intraperitoneal injection, the dose when all mice fell asleep for a moderate time was used as a standard, and the test was carried out with this dose (50 mg/kg·bw). 30 minutes after the last gavage, the mice were given the pentobarbital sodium by intraperitoneal injection to induce sleep. The time from injection of the pentobarbital sodium to disappearance of a righting reflex was recorded as a sleep latency period of the mice. The time from the disappearance of the righting reflex to reappearance of the righting reflex was recorded as a […] of the mice. Whether or not the latency period of each group was shortened and whether or not the sleep time was prolonged were observed.

[4] = mice, pentobarbital sodium 50 mg/kg·bw i.p. 30 minutes after the last gavage, x ± s
[5] = pentobarbital sodium induced sleep, vs blank group, P<0.05

SMILES	Movement speed (male ICR mice [1]) [cm/s]	Movement time (male ICR mice [1]) [s]	Stay time in the middle area (male ICR mice [1]) [%]	12 h sleep duration period (male ICR mice [2]) [min]	Latency period (male ICR mice [3]; [4]) [s]	effect on stay time in the middle area of the mice (in words) (male ICR mice [1]; vs blank group, P<0.01)	effect on movement speed of the mice (in words) (male ICR mice [1]; vs blank group, P<0.05)	effect on movement time of the mice (in words) (male ICR mice [1]; vs blank group, P<0.05)	total sleep duration period within 12 hours (in words) (male ICR mice [2]; vs blank group, P<0.05)	Sleep duration period (male ICR mice [3]; [4])	sleep duration period prolonged by (male ICR mice [3]; [5]) [%]	sleep latency period shortened by (male ICR mice [3]; [5]) [%]
Clc1ccc2c(c1)C(c1ccccc1)=NCc1nncn1-2 [estazolam, reference compound]	4.60 ± 0.96	325.85 ± 51.64	20.63 ± 9.01	404.10 ± 34.03	2.81 ± 0.57	–	–	–	–	–	–	–
N=CC(O)CC(=O)O (centres unmarked) [1-carboxy-2-hydroxy-3-iminopropane]	4.66 ± 1.14	333.76 ± 56.84	17.81 ± 5.14	374.33 ± 24.48	3.60 ± 0.368	significantly increased	significantly reduced	significantly reduced	longer than that of the blank group	34.73 ± 12.71	61.49	24.62
